Results as given in PubChem BioAssay AID256 (DTP/NCI, 2004).
Where “and” joins values, the source holds several entries; their conditions need not be identical. Identical values can stand only once. Inconclusive results and toxic doses are left out.

Tested on: CD2F1 mice, L1210 leukemia ip, survival T/C
Experiment: NCI In Vivo Anticancer Drug Screen. Data for tumor model L1210 Leukemia (intraperitoneal) in CD2F1 (CDF1) mice
Settings: higher = longer survival
Method in brief: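 Tumor-bearing mice (transplanted tumor) were split into treated and vehicle control groups, and the measured endpoint of each treated group was divided by that of its vehicle controls.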

[1] = endpoint: mean survival time, dose: 100.0 mg/kg/injection, schedule: Q04DX003 (ip), vehicle: saline
[2] = endpoint: mean survival time, dose: 100.0 mg/kg/injection, schedule: Q01DX009 (ip), vehicle: saline with Tween-80
[3] = endpoint: mean survival time, dose: 200.0 mg/kg/injection, schedule: Q01DX009 (ip), vehicle: saline with Tween-80

`CCNCC(=O)O[C@]1(CC)C(=O)OCc2c1cc1n(c2=O)Cc2cc3ccccc3nc2-1` was tested. Which T/C (endpoint: median survival time, dose: 7.5 mg/kg/injection, schedule: Q04DX002 (ip), vehicle: saline) did it give?
Its T/C is 122 % of control and 110 % of control.

And the T/C (endpoint: median survival time, dose: 7.5 mg/kg/injection, schedule: Q04HX004 (iv), vehicle: dextrose)?
Its T/C is 164 % of control.

What about the T/C (endpoint: median survival time, dose: 7.5 mg/kg/injection, schedule: Q04HX004 (iv), vehicle: other) of the same compound?
Its T/C is 179 % of control.

And the T/C (endpoint: median survival time, dose: 15.0 mg/kg/injection, schedule: Q04DX002 (ip), vehicle: saline)?
The T/C was 117 % of control.

And the T/C (endpoint: median survival time, dose: 15.0 mg/kg/injection, schedule: Q04HX004 (iv), vehicle: dextrose)?
Its T/C is 198 % of control.

What about the T/C (endpoint: median survival time, dose: 15.0 mg/kg/injection, schedule: Q04HX004 (iv), vehicle: other) of the same compound?
Its T/C is 195 % of control.

What about the T/C (endpoint: median survival time, dose: 30.0 mg/kg/injection, schedule: Q04DX002 (ip), vehicle: saline) of the same compound?
Its T/C is 170 % of control and 172 % of control.

What about the T/C (endpoint: median survival time, dose: 30.0 mg/kg/injection, schedule: Q04HX004 (iv), vehicle: dextrose) of the same compound?
Its T/C is 208 % of control.

And the T/C (endpoint: median survival time, dose: 30.0 mg/kg/injection, schedule: Q04HX004 (iv), vehicle: other)?
The T/C was 223 % of control.

What about the T/C (endpoint: median survival time, dose: 40.0 mg/kg/injection, schedule: Q04HX004 (iv), vehicle: other) of the same compound?
The T/C was 235 % of control.

`NC1CCC(CCCC2CCCC2)CC1` (stereo not given) was tested. Which T/C (endpoint: mean survival time, dose: 6.25 mg/kg/injection, schedule: Q01DX009 (ip), vehicle: saline with Tween-80) did it give?
The T/C was 102 % of control.

And the T/C (endpoint: mean survival time, dose: 12.5 mg/kg/injection, schedule: Q01DX009 (ip), vehicle: saline with Tween-80)?
Its T/C is 98 % of control.

And the T/C (endpoint: mean survival time, dose: 25.0 mg/kg/injection, schedule: Q01DX009 (ip), vehicle: saline with Tween-80)?
The T/C was 102 % of control.

Which results are given for `CCc1ccc(C2=C(O)C(=O)C(c3ccccc3)=C(O)C2=O)cc1`?
T/C (endpoint: mean survival time, dose: 3.12 mg/kg/injection, schedule: Q01DX009 (ip), vehicle: Klucel (hydroxypropylcellulose) (HPC)): 97 % of control; T/C (endpoint: mean survival time, dose: 6.25 mg/kg/injection, schedule: Q01DX009 (ip), vehicle: Klucel (hydroxypropylcellulose) (HPC)): 100 % of control; T/C (endpoint: mean survival time, dose: 12.5 mg/kg/injection, schedule: Q01DX009 (ip), vehicle: Klucel (hydroxypropylcellulose) (HPC)): 100 % of control; T/C (endpoint: mean survival time, dose: 25.0 mg/kg/injection, schedule: Q01DX009 (ip), vehicle: Klucel (hydroxypropylcellulose) (HPC)): 97 % of control; T/C (endpoint: mean survival time, dose: 50.0 mg/kg/injection, schedule: Q01DX009 (ip), vehicle: Klucel (hydroxypropylcellulose) (HPC)): 100 % of control; T/C (endpoint: mean survival time, dose: 100.0 mg/kg/injection, schedule: Q01DX009 (ip), vehicle: Klucel (hydroxypropylcellulose) (HPC)): 95 % of control

How did the T/C (endpoint: mean survival time, dose: 100.0 mg/kg/injection, schedule: Q04DX002 (ip), vehicle: saline with Tween-80) turn out when `C=CCC1(CO)CCCCC1O` (stereo not given) was run?
The T/C was 96 % of control.

What about the T/C (endpoint: mean survival time, dose: 200.0 mg/kg/injection, schedule: Q04DX002 (ip), vehicle: saline with Tween-80) of the same compound?
The T/C was 100 % of control.

What about the T/C (endpoint: mean survival time, dose: 400.0 mg/kg/injection, schedule: Q04DX002 (ip), vehicle: saline with Tween-80) of the same compound?
The T/C was 92 % of control.

For `Cc1ccc(CC(=O)O)cc1C`, which T/C (endpoint: mean survival time, dose: 100.0 mg/kg/injection, schedule: Q04DX003 (ip), vehicle: saline with Tween-80) is on record?
The T/C was 98 % of control.

And the T/C (endpoint: mean survival time, dose: 200.0 mg/kg/injection, schedule: Q04DX003 (ip), vehicle: saline with Tween-80)?
The T/C was 95 % of control.

What about the T/C (endpoint: mean survival time, dose: 400.0 mg/kg/injection, schedule: Q04DX003 (ip), vehicle: saline with Tween-80) of the same compound?
The T/C was 98 % of control.

Which T/C (endpoint: mean survival time, dose: 25.0 mg/kg/injection, schedule: Q04DX003 (ip), vehicle: saline) does the source give for `O=C1Cc2cccc(=O)c(O)c2C(=O)O1` here?
The T/C was 96 % of control.

What about the T/C (endpoint: mean survival time, dose: 50.0 mg/kg/injection, schedule: Q04DX003 (ip), vehicle: saline) of the same compound?
The T/C was 104 % of control.

And the T/C [1]?
Its T/C is 94 % of control.

With `Cc1ccc(NC(=S)Nc2ccc(C)cc2)cc1` as the compound, how does the T/C [2] read?
Its T/C is 89 % of control.

What about the T/C [3] of the same compound?
The T/C was 91 % of control.

What about the T/C (endpoint: mean survival time, dose: 400.0 mg/kg/injection, schedule: Q01DX009 (ip), vehicle: saline with Tween-80) of the same compound?
The T/C was 93 % of control.

What does the source list for `COC(=O)c1cc(Cl)cc(C(=O)OC)c1`?
T/C [2]: 95 % of control; T/C [3]: 88 % of control

With `COC1=C2CCCC2=[N+]2CCCCC2C1` (stereo not given) as the compound, how does the T/C [1] read?
The T/C was 96 % of control.

What about the T/C (endpoint: mean survival time, dose: 200.0 mg/kg/injection, schedule: Q04DX003 (ip), vehicle: saline) of the same compound?
The T/C was 96 % of control.

How did the T/C (endpoint: mean survival time, dose: 37.5 mg/kg/injection, schedule: Q01DX009 (ip), vehicle: Klucel (hydroxypropylcellulose) (HPC)) turn out when `Cc1ncc([N+](=O)[O-])n1CCO` was run?
Its T/C is 109 % of control.

What about the T/C (endpoint: mean survival time, dose: 37.5 mg/kg/injection, schedule: Q04DX003 (ip), vehicle: Klucel (hydroxypropylcellulose) (HPC)) of the same compound?
The T/C was 98 % of control.

And the T/C (endpoint: mean survival time, dose: 75.0 mg/kg/injection, schedule: Q01DX009 (ip), vehicle: Klucel (hydroxypropylcellulose) (HPC))?
Its T/C is 104 % of control.

What about the T/C (endpoint: mean survival time, dose: 75.0 mg/kg/injection, schedule: Q04DX003 (ip), vehicle: Klucel (hydroxypropylcellulose) (HPC)) of the same compound?
The T/C was 103 % of control.

What about the T/C (endpoint: mean survival time, dose: 150.0 mg/kg/injection, schedule: Q01DX009 (ip), vehicle: Klucel (hydroxypropylcellulose) (HPC)) of the same compound?
The T/C was 103 % of control.

What about the T/C (endpoint: mean survival time, dose: 150.0 mg/kg/injection, schedule: Q04DX003 (ip), vehicle: Klucel (hydroxypropylcellulose) (HPC)) of the same compound?
The T/C was 104 % of control.

What about the T/C (endpoint: mean survival time, dose: 300.0 mg/kg/injection, schedule: Q01DX009 (ip), vehicle: Klucel (hydroxypropylcellulose) (HPC)) of the same compound?
The T/C was 107 % of control.

What about the T/C (endpoint: mean survival time, dose: 300.0 mg/kg/injection, schedule: Q04DX003 (ip), vehicle: Klucel (hydroxypropylcellulose) (HPC)) of the same compound?
Its T/C is 97 % of control.

What about the T/C (endpoint: mean survival time, dose: 600.0 mg/kg/injection, schedule: Q01DX009 (ip), vehicle: Klucel (hydroxypropylcellulose) (HPC)) of the same compound?
The T/C was 92 % of control.

And the T/C (endpoint: mean survival time, dose: 600.0 mg/kg/injection, schedule: Q04DX003 (ip), vehicle: Klucel (hydroxypropylcellulose) (HPC))?
The T/C was 98 % of control.
